Entries after “also recorded” stand apart in the source; their conditions may differ.
Key:
[1] = LD50, single oral dose, rats; settings: rat, in vivo, single oral dose in corn oil containing 15% of the agent, 14-day period
[2] = LD50, single oral dose, mice; settings: mouse, in vivo, single oral dose in corn oil and 5% of the agent, 14-day period
male Fisher 344 rat = assay: Proto IX levels in tissues of rat fed agent for 27 days; format: in vivo; settings: feed containing 5000 ppm for 27 days
Text: In another test, a male Fisher 344 rat was fed for 27 days with feed containing 5000 ppm of agent 6c and then sacrificed.
In the foregoing tests of rats and mice the animals were kept on a standard 12 hr. dark-12 hr. light cycle.

[3] = tested on: dark-bleached Chlamydomonas reinhardi mutant y-1; assay: Light-Induced Greening Inhibition Test; format: cell-based; settings: compounds ionized in water, operative ion negatively charged
Procedure: Another test of the capacity of a material for disrupting the plasmalemma of plant material is the Light-Induced Greening Inhibition Test described more particularly in Appendix B below.
Stock Cultures of y-1 cells are maintained axenically in liquid culture on Medium A or M, preferably on Medium M, in a 14/10 hour light/dark cycle at 25° C. in Erlenmeyer flasks which are stoppered with polyurethane plugs. The stock cultures are incubated without supplemental aeration on rotary shakers at 125 rpm. The light intensity at the culture level is 120 μE m^-2 sec^-1 (PAR). Under these conditions the cultures are in a semi-synchronous mode of growth until they reach a stationary phase of 2-4×10^6 cells/mL.
Cells from the stationary phase of stock cultures grown in the presence of light (7.5 mL) are transferred to 750 mL of Medium A in an Erlenmeyer flask. […]
An aqueous, 10% sodium dodecyl sulfate solution (250 μL) and methanol (1 mL) is added to each test well and is mixed thoroughly. […] The supernatants are removed and analyzed in a Beckman Model 35 spectrophotometer between 350 nm and 500 nm for the presence of protophorphrin IX, at 668 nm which is the absorption peak of chlorophyll in this solvent system, and at 720 nm to use as a turbidity background reading.
For each well a greenness value is obtained by subtracting the 720 nm reading from the 668 nm reading. […]

chondrosarcoma = assay: Photodynamic treatment of chondrosarcoma in rats fed the agent (Example 9); format: in vivo, Sprague-Dawley rats
Procedure: Specifically, three Sprague-Dawley rats of average weight 120 g were placed on a diet of feed containing 2000 ppm of the agent for a period of 6 days. On day 3, chondrosarcoma was implanted into the right hind limb of each rat by injecting 0.3 mL of a suspension of the tumor cells (about one million tumor cells). On day 6 the right hind limb of each rat was shaven and depilated, the size of each tumor was measured, and the tumor area and surrounding skin were then exposed to non-thermal doses of 630 nm light for a total of 270 J/cm^2.
In another set of experiments, 20 of the rats were placed on the same diet as above (i.e. feed containing 2000 ppm of agent), provided ad libitum, for 10 days before the treatment with the light, and the injection of the tumor cell suspension was made after the animals had been on the diet for 7 days. Such an injection causes the formation of a tumor having a well defined vascular network within 1 to 2 days. At the time of the treatment with light the tumors had diameters of 5-8 mm and were free of evident necrosis.

[4] = 20 rats, 2000 ppm in feed for 10 days

For Cc1nn(-c2cc(NS(C)(=O)=O)c(Cl)cc2Cl)c(=O)n1C(F)F [Agent 6c], the LD50 at 336 h [1] was over 2600 mg/kg, the LD50 at 336 h [2] was over 700 mg/kg and the “Proto IX level in muscle tissue” value (male Fisher 344 rat) was “only a small increase”. For the same compound, the “Proto IX levels in kidney, intestine, stomach and brain” value (male Fisher 344 rat) was “marked increases”, the “Proto IX levels in tissues as compared to a control” value (male Fisher 344 rat) was “increased levels of Proto IX as compared to a control” and the “response in light-greening inhibition test” value [3] was “do not respond well in this test”. For the same compound, the “tumors that regrew over time” value (chondrosarcoma; [4]) was about 95%, the “tumors with visible regression on the day following the light treatment” value (chondrosarcoma; [4]) was 75% and the “effect on surrounding skin and muscle tissue” value (chondrosarcoma; 2000 ppm in feed for 6 days, 630 nm light 270 J/cm^2) was “slightly blanched and showed some swelling”. The “occlusion of blood flow to the treatment area” value (chondrosarcoma; sodium fluoroscin injection immediately after exposure to light) was “did not cause apparent occlusion of blood flow” and the “tumor regression on the day after light treatment” value (chondrosarcoma; three rats, 2000 ppm in feed for 6 days, 630 nm light 270 J/cm^2) was “two of the rats were found to be apparently free of their tumors; also recorded: the third rat showed almost complete regression of its tumor”.
